Measurements: US20250099420A1, “SMALL MOLECULE MODULATORS OF GPR139 COMPLEX” (University of Florida Research Foundation, Incorporated, priority 2022, published 2025)
Where two headings read alike, the source gives them in different places.

Legend:
[1] = tested on: parental HEK cells; assay: HEK parental Agonist Counterscreen Assay (non-transfected cells); assay type: cell-based; settings: for Averaged Max % Response (±St. Dev.): activity relative to known control
From the text: The high control for the agonist counterscreen was Forskolin not acetylcholine.

[2] = biological target: T1, GPR139 (Homo sapiens, UniProt Q6DWJ6); assay: GPR139 Agonist titration / agonist counterscreen assay (calcium detection, HEK-GPR139 cells); assay type: cell-based; set-up: expressed in transfected cells; host or cells: HEK Aequorin cells, Maxcyte transient transfection; settings: GPR139 Agonist Activity; for Averaged Max % Response (±St. Dev.): activity relative to known control; for EC50: read-out: EC50
T1 sequence (Q6DWJ6 1-353): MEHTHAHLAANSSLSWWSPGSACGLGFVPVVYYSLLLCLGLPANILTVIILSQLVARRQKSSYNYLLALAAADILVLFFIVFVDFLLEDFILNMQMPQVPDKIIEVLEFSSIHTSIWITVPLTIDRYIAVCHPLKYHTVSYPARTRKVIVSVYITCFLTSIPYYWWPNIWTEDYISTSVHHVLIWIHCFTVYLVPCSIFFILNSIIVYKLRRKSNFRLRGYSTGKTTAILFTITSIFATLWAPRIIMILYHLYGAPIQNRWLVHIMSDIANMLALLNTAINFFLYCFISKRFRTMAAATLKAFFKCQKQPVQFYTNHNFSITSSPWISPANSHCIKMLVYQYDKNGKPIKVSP
Protocol: GPR activity was assessed using a calcium detection assay. […] Negative control samples were treated with DMSO. […] Intracellular calcium was measured using Calcium 5.

[3] = HEK Agonist Activity section of Table 4 (parental HEK counterscreen)
[4] = values printed in E-notation without unit
[5] = Homo sapiens, HEK293, HEK Agonist Activity section of Table 4 (parental HEK counterscreen)
[6] = Homo sapiens, HEK293, HEK Agonist Activity, parental non-transfected HEK cells
[7] = HEK Agonist Activity, parental non-transfected HEK cells

Structure (SMILES)	Lipophilic Efficiency (logD) ([1]; HEK Agonist Activity section)	Lipophilic Efficiency (logP) ([1]; HEK Agonist Activity section)	Averaged Max % Response (±St. Dev.) ([1]; HEK Agonist Activity section) [%]	Averaged Max % Response (±St. Dev.) [2] [%]	Lipophilic Efficiency (logD) ([2]; based on logD)	Lipophilic Efficiency (logP) ([2]; based on logP)	Hill Slope ([2]; fitted dose-response curve)	Efficiency Ligand ([2]; ligand efficiency)	EC50 [2, 4] [nM]	EC50 [1, 5] [nM]	Efficiency Ligand [2]	Hill Slope [2]	Lipophilic Efficiency (logD) [2]	Lipophilic Efficiency (logP) [2]	EC50 ([2]; HEK-GPR139 cells) [nM]	also measured
Cc1ccc2c(c1)-c1c(cnn1CC(=O)Nc1ccccn1)CO2 [SR-01000152429]	2.49	2.49	−0.18 ± 21.55	109.51 ± 16.91	4.53	4.53	1.07	0.40	128	–	–	–	–	–	–	EC50 [1, 3]: > 14100 nM
CC(NC(=O)Cn1ncc2ccccc21)c1ccc2c(c1)OCCO2 (stereo not shown) [SR-01000152760]	2.88	2.88	0.48 ± 8.40	85.23 ± 10.03	4.79	4.79	0.63	0.38	174	–	–	–	–	–	–	EC50 [1, 3]: > 14100 nM
Cc1cc(=O)n2nc(NCc3ccccc3Cl)nc2[nH]1 [SR-01000153886]	2.16	2.16	−3.87 ± 9.73	90.96 ± 29.33	–	–	–	–	–	> 14100	0.41	2.51	3.22	3.22	1200	–
O=c1c2c([nH]c3nc(NCc4ccccc4Cl)nn13)CCC2 [SR-01000153956]	1.70	1.70	21.15 ± 4.99	93.85 ± 32.13	–	–	–	–	–	> 14100	0.38	1.89	2.80	2.80	1100	–
Cc1cc(C)c2c(cnn2CC(=O)N2CCc3ccccc3C2)c1 [SR-01000154995]	1.52	1.52	41.69 ± 44.54	88.51 ± 8.87	–	–	–	–	–	–	0.36	1.08	2.91	2.91	572	EC50 [1, 3]: > 14100 nM
O=C(Cn1ncc2c(Cl)cccc21)NCCc1ccc(Cl)cc1 [SR-01000155030]	1.32	1.32	10.75 ± 8.11	113.63 ± 16.89	3.06	3.06	0.65	0.40	252	> 14100	–	–	–	–	–	–
CC(NC(=O)Cn1ncc2c(Cl)cccc21)c1ccc2c(c1)OCCO2 (stereo not shown) [SR-01000155068]	–	–	–	127.51 ± 13.72	5.00	5.00	0.58	0.41	26.7	–	–	–	–	–	–	Lipophilic Efficiency (logD) ([1]; HEK Agonist Activity): 2.28; Lipophilic Efficiency (logP) ([1]; HEK Agonist Activity): 2.28; Averaged Max % Response (±St. Dev.) ([1]; HEK Agonist Activity): −2.13 ± 1.88%; EC50 [1, 6]: > 14100 nM
CC1CCC(NC(=O)CCC(=O)N2CCSc3ccccc32)CC1 (stereo not shown) [SR-01000159110]	–	–	–	95.57 ± 19.71	5.19	5.19	1.18	0.45	16.1	–	–	–	–	–	–	Lipophilic Efficiency (logD) ([1]; HEK Agonist Activity): 2.25; Lipophilic Efficiency (logP) ([1]; HEK Agonist Activity): 2.25; Averaged Max % Response (±St. Dev.) ([1]; HEK Agonist Activity): 3.44 ± 10.60%; EC50 [1, 6]: > 14100 nM
CC(C)CCNC(=O)CN1CCN(Cc2ccc(F)cc2Cl)C1=O [SR-01000161248]	2.51	2.51	−6.23 ± 14.84	106.33 ± 15.91	–	–	–	–	–	–	0.38	1.12	4.17	4.17	309	EC50 [1, 3]: > 14100 nM
Cc1ccccc1-c1nnc(CN2CCc3ccccc3C2)o1 [SR-01000162178]	1.73	1.58	25.44 ± 6.84	112.85 ± 32.26	–	–	–	–	–	> 14100	0.40	1.13	3.44	3.29	272	–
CC(C)CN1CCNC(=O)C1CC(=O)NCCCn1ccc2ccccc21 (stereo not shown) [SR-01000176150]	–	–	–	110.06 ± 19.04	6.35	6.03	0.64	0.40	19.2	–	–	–	–	–	–	Lipophilic Efficiency (logD) ([1]; HEK Agonist Activity): 3.48; Lipophilic Efficiency (logP) ([1]; HEK Agonist Activity): 3.17; Averaged Max % Response (±St. Dev.) ([1]; HEK Agonist Activity): −3.65 ± 2.66%; EC50 [1, 7]: > 14100 nM
COc1ccccc1CN1CCNC(=O)C1CC(=O)NCCCN1CCc2ccccc21 (stereo not shown) [SR-01000176838]	3.04	3.02	−8.12 ± 1.57	83.30 ± 1.40	–	–	–	–	–	> 14100	0.27	0.77	4.34	4.32	697	–
CC(C)(C)CN1CCNC(=O)C1CC(=O)NCCc1cnn(-c2ccccc2)c1 (stereo not shown) [SR-01000177515]	–	–	–	91.26 ± 4.77	5.92	5.67	0.48	0.37	22.6	–	–	–	–	–	–	Lipophilic Efficiency (logD) ([1]; HEK Agonist Activity): 3.12; Lipophilic Efficiency (logP) ([1]; HEK Agonist Activity): 2.87; Averaged Max % Response (±St. Dev.) ([1]; HEK Agonist Activity): 24.98 ± 4.71%; EC50 [1, 7]: > 14100 nM
O=C(NCC1Cc2cccc(-c3ccccn3)c2O1)c1ccc(-n2cccn2)cc1 (stereo not shown) [SR-01000183606]	–	–	–	89.43 ± 6.88	3.97	3.96	0.82	0.36	22	–	–	–	–	–	–	Lipophilic Efficiency (logD) ([1]; HEK Agonist Activity): 1.16; Lipophilic Efficiency (logP) ([1]; HEK Agonist Activity): 1.16; Averaged Max % Response (±St. Dev.) ([1]; HEK Agonist Activity): −9.57 ± 3.95%; EC50 [1, 7]: > 14100 nM
CCOC(=O)C1CCN(C(=O)C2CC(Cc3cccc4ccccc34)=NO2)CC1 (stereo not shown) [SR-01000185621]	1.69	1.69	−9.62 ± 7.28	81.20 ± 9.68	–	–	–	–	–	> 14100	0.28	0.84	2.73	2.73	1300	–
O=C(C1CC(Cc2cccc3ccccc23)=NO1)N1CCC(C(O)Cc2ccccc2)CC1 (stereo not shown) [SR-01000185712]	0.41	0.41	9.02 ± 5.86	110.27 ± 5.24	2.48	2.48	0.46	0.29	122	–	–	–	–	–	–	EC50 [1, 3]: > 14100 nM
Cc1nc(CNC(=O)CCC2(Cc3cccc4ccccc34)CCC(=O)N2)cs1 (stereo not shown) [SR-01000187393]	2.44	2.44	6.35 ± 6.79	99.15 ± 6.04	4.29	4.29	0.44	0.32	196	> 14100	–	–	–	–	–	–
O=C(NCc1csc(-c2cccs2)n1)C1CC(Cc2ccc3c(c2)OCO3)=NO1 (stereo not shown) [SR-01000187428]	1.59	1.59	6.44 ± 5.26	99.03 ± 14.80	3.43	3.43	1.55	0.32	201	> 14100	–	–	–	–	–	–
O=C(NC1CC1)C1CC(Cc2cccc3ccccc23)=NO1 (stereo not shown) [SR-01000188699]	2.02	2.02	4.63 ± 6.30	112.57 ± 11.99	4.37	4.37	1.05	0.46	63.8	> 14100	–	–	–	–	–	–
